PMC7399811, “Analogues of a Cyclic Antimicrobial Peptide with a Flexible Linker Show Promising Activity against Pseudomonas aeruginosa and Staphylococcus aureus” (Antibiotics, 2020)
≈ marks a conversion by molar mass, not a printed value. Square brackets hold non-standard residues; d marks the D form. Peptide text beside a SMILES is read from it. Bip = N[C@@H](Cc1ccc(-c2ccccc2)cc1)C(=O)O; 2Nal = N[C@@H](Cc1ccc2ccccc2c1)C(=O)O; Dab = NCC[C@H](N)C(=O)O; AEEA = NCCOCCOCC(=O)O

Key:
[1] = tested on: red blood cells; conditions: at 150 µM peptide; 0.5% v/v RBC in PBS, 1 h 37 °C, absorbance 414 nm, normalized to melittin (100%) and PBS (0%)
Method: A total of 150 µL of 5 µM melittin was added to the positive control wells 1-6H of a V-shaped 96-well polypropylene plate and left overnight. The melittin solution was removed and the positive control wells were washed 3 times with 150 µL PBS. Afterwards, a 2.5 µM melittin solution was added to the positive control wells. For the assay, 0-negative blood in EDTA was used. Blood was washed by mixing 3 mL of PBS with 1 mL of whole blood, and centrifuged for 8 min at 3000 rpm. The supernatant was discarded and 4 mL of PBS added, mixed gently, and centrifuged. This wash cycle was repeated but the last centrifuge velocity was raised to 4000 rpm. Next, 40 µL red blood cells (RBC) was suspended in 8 mL of PBS to achieve an RBC suspension of 0.5% volume/volume (v/v). Peptide solutions were prepared at 600 µM, two times the highest concentration. A total of 150 µL peptide solution was transferred to row A. Next, 75 µL PBS was transferred to wells B1 to G12, as well as H7-12 (negative control), and the peptides were serially diluted two-fold. Then, 75 µL RBC suspension was added to all wells and the plate was covered with a Microseal® film and incubated for 1 h at 37 °C. Next, the plate was centrifuged for 10 min at 4000 rpm. Subsequently, 60 µL supernatant was transferred into the corresponding wells of a clear, polystyrene, flat-bottomed 96-well ELISA plate. The absorbance was read at λ = 414 nm with a VersaMaxTM Tunable Microplate Reader and the data were evaluated on Softmax® Pro. The results were normalized with respect to the average positive (100%) and negative (0%) controls, as described previously [43].

[2] = tested on: S. aureus, P. aeruginosa, E. coli, A. baumannii; assay: Minimum inhibitory concentration, statements over several strains; assay type: cell-based; conditions: MIC against S. aureus and P. aeruginosa
Method: Bacterial strains (E. coli ATCC 29522, S. aureus ATCC 29213, A. baumannii ATCC 19606, and P. aeruginosa ATCC 27853) were grown overnight on LB agar plates at 37 °C. Overnight cultures were prepared by inoculation of two to three colonies in 10 mL non-cation adjusted Mueller–Hinton broth (MHB) media (BD BBLTM Beef extract powder, BD BactoTMCasamino acids, and DIFCO soluble starch). Bacterial inoculum for MIC testing was prepared as balanced cultures, as previously described. The bacterial suspension was adjusted using MHB to an OD600 of 0.1, approximately 1·10^8 colony forming units (CFU/mL), and then diluted 1:200 in MHB, to give a final bacterial suspension of 5·10^5 CFU/mL, as described by Wiegand et al.. […] For MIC determination, all peptides were measured in triplicates using the protocol described by Wiegand et al. for “antimicrobial peptides that require the presence of acetic acid/BSA”. In brief, 20 µL peptide solution and gentamycin solution was transferred to column 1 of 96-well plates. Next, 10 µL 0.2% BSA; 0.01% acetic acid MHB media was transferred to column 2–11. Subsequently, peptides were serially diluted two-fold in the MIC plate and 90 µL bacterial suspension was transferred to all wells in column 1–11. […] The colonies were counted and 50 colonies were expected on the 1:10,000 plates and 500 on the 1:1000 plates.

[3] = tested on: P. aeruginosa ATCC 27853; assay type: cell-based
Method: (§1) Bacterial strains (E. coli ATCC 29522, S. aureus ATCC 29213, A. baumannii ATCC 19606, and P. aeruginosa ATCC 27853) were grown overnight on LB agar plates at 37 °C. Overnight cultures were prepared by inoculation of two to three colonies in 10 mL non-cation adjusted Mueller–Hinton broth (MHB) media (BD BBLTM Beef extract powder, BD BactoTMCasamino acids, and DIFCO soluble starch). Bacterial inoculum for MIC testing was prepared as balanced cultures, as previously described. The bacterial suspension was adjusted using MHB to an OD600 of 0.1, approximately 1·10^8 colony forming units (CFU/mL), and then diluted 1:200 in MHB, to give a final bacterial suspension of 5·10^5 CFU/mL, as described by Wiegand et al.. […] For MIC determination, all peptides were measured in triplicates using the protocol described by Wiegand et al. for “antimicrobial peptides that require the presence of acetic acid/BSA”. In brief, 20 µL peptide solution and gentamycin solution was transferred to column 1 of 96-well plates. Next, 10 µL 0.2% BSA; 0.01% acetic acid MHB media was transferred to column 2–11. Subsequently, peptides were serially diluted two-fold in the MIC plate and 90 µL bacterial suspension was transferred to all wells in column 1–11. Next, 100 µL bacterial suspension was transferred to column 12 D–F (growth control) and 100 µL media to column 12 A–C (sterility control). After an overnight incubation at 37 °C of the MIC plates, MIC values were determined as the lowest concentration at which there was no visible bacterial growth. For the inoculum control, 10 µL of solution from a positive-growth control well from each bacterial strain was dissolved in 990 µL phosphate-buffered saline (PBS) (1:100 dilution) in an Eppendorf tube. This solution was vortexed and 100 µL transferred to another Eppendorf tube containing 900 µL PBS (1:10 dilution) and vortexed. Then, 100 µL of each dilution was spread onto the MHB media plates, in triplicates, to achieve a CFU dilution of 1:1000 and 1:10,000, respectively. The plates were incubated overnight at 37 °C. The colonies were counted and 50 colonies were expected on the 1:10,000 plates and 500 on the 1:1000 plates.

[4] = tested on: S. aureus ATCC 29213; assay type: cell-based
Method: as §1

[5] = tested on: E. coli ATCC 29522; assay type: cell-based; conditions: ATCC 29522
Method: as §1

[6] = tested on: A. baumannii ATCC 19606; assay type: cell-based; conditions: ATCC 19606
Method: as §1

[7] = RP-HPLC retention time as indicator of hydrophobicity/amphipathicity; assay type: physicochemical; conditions: chromatographic, Waters Symmetry C18 4.6 × 250 mm, used as measure of hydrophobicity/amphipathicity (Table S1)
Method: Cleavage was performed on half or all of the resin with a TFA:H2O:TIS (95:2.5:2.5) solution for 2 h. The cleavage solution was collected and concentrated with a gentle stream of N2, down to about 300 µL. The peptide was precipitated and washed with 4 mL cold (−20 °C) diethyl ether, 3 times. The residual ether was left overnight to evaporate. Next, the crude product was dissolved in 90% water and 10% ACN and freeze-dried, ready for analysis and purification. Peptides were identified using Matrix Assisted Laser Desorption Ionization time of flight mass spectroscopy (MALDI–ToF MS). To this end, 1 µL peptide solution and 1 µL α-cyano4-hydroxycinnamic acid matrix (10 mg/ mL in ACN:H2O:TFA, 50:47.5:2.5) were spotted onto a target plate, followed by detection using a MicroflexTM. FlexControl software was used to obtain the spectra and the data were processed using flexAnalysis [Bruker Daltonik GmbH]. RP–HPLC was used to assess peptide purity. The system consisted of a WatersTM In-Line Degasser AF, a WatersTM 600 pump, a WatersTM 2996 Photodiode Array Detector, and a WatersTM Symmetry C18, 4.6 × 250 mm, […] column. The data were processed using Empower3 software. Purity was ≥95% for all tested peptide. Peptide purification was done by dissolving the peptides in minimal […], and 300–500 µL was injected into the HPLC system to achieve separation.

| SMILES | percent hemolytic activity against red blood cells (%H) [1] | increase in activity compared to BSI-9 [2] | Minimum inhibitory concentration PA [3] | Minimum inhibitory concentration SA [4] | Minimum inhibitory concentration EC [5] | Minimum inhibitory concentration AB [6] | HPLC retention time (RT) [7] |
| --- | --- | --- | --- | --- | --- | --- | --- |
| NCC[C@@H]1NC(=O)[C@H](Cc2ccc3ccccc3c2)NC(=O)COCCOCCNC(=O)[C@H](Cc2ccc(-c3ccccc3)cc2)NC(=O)[C@H](CCN)NC(=O)[C@H](CCN)NC(=O)[C@H](Cc2ccc3ccccc3c2)NC(=O)[C@H](CCN)NC(=O)[C@H](CC(N)=O)NC1=O [compound 9] (cyclo([Dab][2Nal][Dab][Dab][Bip][AEEA][2Nal][Dab]N)) | 76% | 8 fold | 4 µg/mL (≈ 3.13 µM) | 8 µg/mL (≈ 6.26 µM) | >64 µg/mL | 32 µg/mL (≈ 25 µM) | 17.8 min |
| N=C(N)NCCC[C@@H]1NC(=O)[C@H](Cc2ccc3ccccc3c2)NC(=O)COCCOCCNC(=O)[C@H](Cc2ccc(-c3ccccc3)cc2)NC(=O)[C@H](CCN)NC(=O)[C@H](CCN)NC(=O)[C@H](Cc2ccc3ccccc3c2)NC(=O)[C@H](CCN)NC(=O)[C@H](CC(N)=O)NC1=O [compound 13] (cyclo([Dab][2Nal][Dab][Dab][Bip][AEEA][2Nal]RN)) | 80% |  | 4 µg/mL (≈ 3 µM) | 1 µg/mL (≈ 0.75 µM) | 32 µg/mL (≈ 24 µM) | 64 µg/mL (≈ 48 µM) | 17.9 min |
